# Tests used:
# NCIH929.1 cells [1] = experiment: Cell viability assay for Table 1 (CellTiter-Glo 2.0, ATP quantification, 96 hr); type: cell-based; details: NCIH929.1 cell viability, top concentration 1 μM, 10 points half log titration, cytostatic control
# Experimental: Example 171. Cell Viability Assay for Table 1
# RPMI 1640 medium, fetal bovine serum (FBS) and 2-mercaptoethanol were purchased from Gibco (Grand Island, N.Y., USA). CellTiter-Glo® 2.0 Assay was purchased from Promega (Madison, Wis., USA). NCIH929.1 cell line was purchased from ATCC (Manassas, Va., USA). Cell culture flasks and 384-well microplates were acquired from VWR (Radnor, Pa., USA).
# At the same day of compound treatment, CellTiter-Glo® 2.0 was added to a plate with cells treated in the absence of the test compound to establish Cytostatic control value (Gm).
# NCIH929.1 cells [2] = experiment: Cell viability assay for Table 2 (CellTiter-Glo 2.0, ATP quantification, 96 hr); type: cell-based; details: 96 h, NCIH929.1 cell viability, 96 hr, top concentration 1 μM, 14 points half log titration; read-out: IC50
# Text: Cell Viability Assay for Table 2
# CellTiter-Glo® 2.0 Assay was purchased from Promega (Madison, Wis., USA). NCIH929.1 cell line was purchased from ATCC (Manassas, Va., USA). Cell culture flasks and 384-well microplates were acquired from VWR (Radnor, Pa., USA).
SMILES,GI50 (NCIH929.1 cells [1]) [nM],IC50 (NCIH929.1 cells [2]) [nM]
"CC(C)(C)OC(=O)N1CCC(n2cc(Cc3ccc4c5c(cccc35)C(=O)N4C3CCC(=O)NC3=O)cn2)CC1 (stereo not shown) [Compound 2, tert-Butyl 4-(4-((1-(2,6-Dioxopiperidin-3-yl)-2-oxo-1,2-dihydrobenzo[cd]indol-6-yl)methyl)-1H-pyrazol-1-yl)piperidine-1-carboxylate]",< 1,
"O=C1CCC(N2C(=O)c3cccc4c(Cc5cnn(C6CCN(C(=O)C78C9C%10C%11C9C7C%11C%108)CC6)c5)ccc2c34)C(=O)N1 (stereo not shown) [Compound 3, 3-(6-((1-(1-(Cubane-1-carbonyl)piperidin-4-yl)-1H-pyrazol-4-yl)methyl)-2-oxobenzo[cd]indol-1(2H)-yl)piperidine-2,6-dione]",< 1,
"CC1(C(=O)N2CCC(n3cc(Cc4ccc5c6c(cccc46)C(=O)N5C4CCC(=O)NC4=O)cn3)CC2)CCC1 (stereo not shown) [Compound 4, 3-(6-((1-(1-(1-Methylcyclobutane-1-carbonyl)piperidin-4-yl)-1H-pyrazol-4-yl)methyl)-2-oxobenzo[cd]indol-1(2H)-yl)piperidine-2,6-dione]",< 1,
"CC1(n2cc(Cc3ccc4c5c(cccc35)C(=O)N4C3CCC(=O)NC3=O)cn2)CCN(C(=O)C23C4C5C6C4C2C6C53)CC1 (stereo not shown) [Compound 18, 3-(6-((1-(1-(Cubane-1-carbonyl)-4-methylpiperidin-4-yl)-1H-pyrazol-4-yl)methyl)-2-oxobenzo[cd]indol-1(2H)-yl)piperidine-2,6-dione]",< 1,
"O=C1CCC(N2C(=O)c3cccc4c(Cc5ccc(CN6CCOCC6)c(F)c5)ccc2c34)C(=O)N1 (stereo not shown) [Compound 278, 3-[6-{[3-fluoro-4-(morpholinomethyl)phenyl]methyl}-2-oxo-benzo[cd]indol-1-yl]piperidine-2,6-dione]",,< 1
"N#Cc1ccc(N2CCN(Cc3ccc(Cc4ccc5c6c(cccc46)C(=O)N5C4CCC(=O)NC4=O)cn3)CC2)c(F)c1 (stereo not shown) [Compound 279, 4-[4-[[5-[[1-(2,6-dioxo-3-piperidyl)-2-oxo-benzo[cd]indol-6-yl]methyl]-2-pyridyl]methyl]piperazin-1-yl]-3-fluoro-benzonitrile]",,< 1
"Cc1cc(Cc2ccc3c4c(cccc24)C(=O)N3C2CCC(=O)NC2=O)ccc1CN1CCN(c2ccccc2F)CC1 (stereo not shown) [Compound 286, 3-[6-[[4-[[4-(2-fluorophenyl)piperazin-1-yl]methyl]-3-methyl-phenyl]methyl]-2-oxo-benzo[cd]indol-1-yl]piperidine-2,6-dione]",,< 1
"CN(C)C1(C(=O)N2CCC(n3cc(Cc4ccc5c6c(cccc46)C(=O)N5C4CCC(=O)NC4=O)cn3)CC2)CCC1 (stereo not shown) [Compound 287, 3-[6-[[1-[1-[1-(dimethylamino)cyclobutanecarbonyl]-4-piperidyl]pyrazol-4-yl]methyl]-2-oxo-benzo[cd]indol-1-yl]piperidine-2,6-dione]",,< 1
"O=C1CCC(N2C(=O)c3cccc4c(Cc5cnn(C6CCN(C7CC8(CCC8)C7)CC6)c5)ccc2c34)C(=O)N1 (stereo not shown) [Compound 288, 3-[2-oxo-6-[[1-(1-spiro[3.3]heptan-2-yl-4-piperidyl)pyrazol-4-yl]methyl]benzo[cd]indol-1-yl]piperidine-2,6-dione]",,< 1
"CC1(C(=O)N2CCC(n3cc(Cc4cnc5c6c(cccc46)C(=O)N5C4CCC(=O)NC4=O)cn3)CC2)CCC1 (stereo not shown) [Compound 289, 3-[20-[[1-[1-(1-methylcyclobutanecarbonyl)-4-piperidyl]pyrazol-4-yl]methyl]-26-oxo-30,35-diazatricyclododeca-1,3(18),5(20),17(21),22(30)-pentaen-35-yl]piperidine-2,6-dione]",,< 100
"CC1(C(=O)N2CCC(c3cccc(Cc4ccc5c6c(cccc46)C(=O)N5C4CCC(=O)NC4=O)c3)CC2)CCC1 (stereo not shown) [Compound 290, 3-[6-[[3-[1-(1-methylcyclobutanecarbonyl)-4-piperidyl]phenyl]methyl]-2-oxo-benzo[cd]indol-1-yl]piperidine-2,6-dione]",,< 1
"CC(C)(C)OC(=O)N1CC2CC(C(=O)N3CCC(n4cc(Cc5ccc6c7c(cccc57)C(=O)N6C5CCC(=O)NC5=O)cn4)CC3)(C2)C1 (stereo not shown) [Compound 292, tert-butyl 1-(4-(4-((1-(2,6-dioxopiperidin-3-yl)-2-oxo-1,2-dihydrobenzo[cd]indol-6-yl)methyl)-1H-pyrazol-1-yl)piperidine-1-carbonyl)-3-azabicyclo[3.1.1]heptane-3-carboxylate]",,< 1
"CN1C(=O)CCC(N2C(=O)c3cccc4c(Cc5cnn(C6CCN(CC7(C)CCC7)CC6)c5)ccc2c34)C1=O (stereo not shown) [Compound 294, 1-methyl-3-(6-((1-(1-((1-methylcyclobutyl)methyl)piperidin-4-yl)-1H-pyrazol-4-yl)methyl)-2-oxobenzo[cd]indol-1(2H)-yl)piperidine-2,6-dione]",,< 100

# From patent US20230082430A1 (C4 Therapeutics, Inc., priority 2019, published 2023)
